In US11746133B2, “Cell penetrating peptides that inhibit IRF5 nuclear localization” (Rutgers, The State University of New Jersey, priority 2015, dated 2023):
Residues, ends and D or L forms follow the SMILES beside them.

Legend:
Ramos B cells [1] = assay: Propidium iodide staining to quantify cell death after inhibitor titration; type: cell-based, human; conditions: 25 uM FITC-conjugated inhibitor, 2 hours
Description: Peptide inhibitor titration and uptake. Ramos B cells or THP1 cells were treated with 0.025, 0.25, 2.5, and 25 uM of FITC conjugated peptide inhibitors for 2 hours. Cells were washed, stained with propidium iodide, and immediately analyzed by flow cytometry for uptake of FITC peptide. For uptake experiments in PBMCs, cells were incubated with 10 uM of either mock, scrambled, N-term′ NLS, or C-term′ NLS FITC conjugated inhibitor for 2 hours. Cells were then washed and blocked as previously outlined, and subsequently stained with CD19-BV510 and CD14-PE (Biolegend Catalog #301806). Cells were fixed, stained with DRAQ5 nuclear dye and analyzed by imagestream for uptake of FITC peptide.
IRF5 Peptide Inhibitors readily enter the cell and have low associated toxicity. IRF5 peptide inhibitors were conjugated to FITC moieties to measure cellular uptake over a dose-dependent response. Ramos B cells were treated with increasing concentrations of FITC-conjugated inhibitor for 2 hours. Cells were washed and subsequently treated with propidium iodide to quantify cell death. […] Cell cycle was measured through propidium iodide incorporation, and quantified through flow cytometry. […] To determine if it would be possible to increase uptake of the inhibitor in B cells, uptake following incubation with 10 uM for 1 hour was measured.

Ramos B cells [2] = assay: Tryphan blue staining for cell viability after 24 hours with inhibitor; type: cell-based, human; conditions: 25 uM
Description: IRF5 Peptide Inhibitors readily enter the cell and have low associated toxicity. IRF5 peptide inhibitors were conjugated to FITC moieties to measure cellular uptake over a dose-dependent response. Ramos B cells were treated with increasing concentrations of FITC-conjugated inhibitor for 2 hours. Cells were washed and subsequently treated with propidium iodide to quantify cell death. While at the lower doses of 0.025 and 0.25 uM minimal uptake was seen, at 2.5 uM however, greater than 95% of cells were positive for the FITC-conjugated inhibitor (FIG. 1A). In addition, less than 3% of cells stained positive for propidium iodide, indicating low toxicity for the inhibitor at this dose. […] However, no significant increase in uptake was seen between 2.5 uM and 25 uM concentrations of inhibitor. To ensure no impact on cell viability from treatment with the inhibitors, Ramos B cells were treated with varying concentrations of inhibitor as used previously for the titration experiments for 24 hours, and tryphan blue staining was subsequently performed. […] Cell cycle was measured through propidium iodide incorporation, and quantified through flow cytometry. […] To determine if it would be possible to increase uptake of the inhibitor in B cells, uptake following incubation with 10 uM for 1 hour was measured.

IRF5 [3] = target: T1, IRF5 (Homo sapiens, UniProt Q13568); assay: R848-induced IRF5 nuclear translocation in PBMCs by imaging flow cytometry; type: cell-based; conditions: inhibitor 1 hour, then 500 ng/mL R848 2 hours, vs scrambled control
T1 construct: endogenous in cells; host or cells: healthy-donor human PBMCs; CD14+ monocytes and CD19+ B cells
T1 sequence (Q13568 1-498): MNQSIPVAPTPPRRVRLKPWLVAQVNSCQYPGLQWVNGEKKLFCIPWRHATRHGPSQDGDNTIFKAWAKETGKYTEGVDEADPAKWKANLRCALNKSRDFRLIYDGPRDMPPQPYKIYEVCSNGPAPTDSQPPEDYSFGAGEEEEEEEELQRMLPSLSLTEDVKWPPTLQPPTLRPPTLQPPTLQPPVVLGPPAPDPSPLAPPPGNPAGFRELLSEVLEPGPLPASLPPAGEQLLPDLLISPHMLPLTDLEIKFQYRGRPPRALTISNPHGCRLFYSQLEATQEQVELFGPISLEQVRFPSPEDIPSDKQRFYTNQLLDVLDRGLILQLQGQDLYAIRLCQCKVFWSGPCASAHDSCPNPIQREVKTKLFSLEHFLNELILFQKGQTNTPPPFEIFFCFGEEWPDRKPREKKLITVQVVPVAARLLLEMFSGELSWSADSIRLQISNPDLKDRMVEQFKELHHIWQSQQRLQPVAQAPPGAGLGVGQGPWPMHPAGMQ
Description: FIGS. 2A-E. Peptides (non-FITC-conjugated) inhibit R848-induced IRF5 nuclear translocation. Healthy donor PBMCs were pre-incubated with peptide inhibitors for 1 hour and then stimulated for 2 hours with the Toll-like receptor agonist R848. IRF5 cellular localization was determined in CD14+ monocytes (FIG. 2A) and CD19+ B cells (FIG. 2B) by staining with intracellular IRF5 and DRAQ5. Similarity scores between IRF5 and DRAQ5 were determined on the Amnis Imagestream using IDEAS software. […] Lamin B1 serves as a nuclear protein loading control. Cells were pre-incubated with the indicated inhibitors for 1 hour and then stimulated with LPS for 2 hours. […] IRF5 band intensity was normalized by Lamin B1, and relative fold change of IRF5 in nuclear portion was calculated over PBS treated sample. […]
Imaging Flow Cytometry. […] Nuclear translocation was quantified in the Amnis IDEAS software suite. […] Finally, IRF5 nuclear translocation was determined through use of the similarity score feature contrasting IRF5 staining with DRAQ5 staining. […]
IRF5 peptide inhibitor blocks IRF5 nuclear translocation in both B cells and monocytes. […] As IRF5 has been implicated in the onset of autoimmune diseases in both monocytes and B cells, it was sought to be determined if IRF5 nuclear translocation could be inhibited in both cell populations following stimulation with the TLR7 agonist R848. […]

IRF5 [4] = target: T1, IRF5; assay: Cell fractionation and Western blot of nuclear IRF5 in primary monocytes; type: cell-based; conditions: isolated primary monocytes, inhibitor then R848 stimulation
Description: FIGS. 2A-E. Peptides (non-FITC-conjugated) inhibit R848-induced IRF5 nuclear translocation. Healthy donor PBMCs were pre-incubated with peptide inhibitors for 1 hour and then stimulated for 2 hours with the Toll-like receptor agonist R848. IRF5 cellular localization was determined in CD14+ monocytes (FIG. 2A) and CD19+ B cells (FIG. 2B) by staining with intracellular IRF5 and DRAQ5. Similarity scores between IRF5 and DRAQ5 were determined on the Amnis Imagestream using IDEAS software. […] Lamin B1 serves as a nuclear protein loading control. […] IRF5 band intensity was normalized by Lamin B1, and relative fold change of IRF5 in nuclear portion was calculated over PBS treated sample. In FIGS. 2A-B and E, the bar on the left is mock (NT) and the bar on the right is R848.
Cell Fractionation. Cells were fractionated according to manufacturer's protocol (Cell Signaling, Cell fractionation kit, #9038). Following fractionation, lysates were sonicated and boiled. Nuclear fraction was analyzed by Western blot as follows: 30 μL of lysate was loaded onto a 3-8% NuPAGE® Novex® Tris-Acetate gel (Life Technologies, #EA0378BOX), and transferred onto a 0.45 μm nitrocellulose membrane (Bio-Rad Laboratories). […] Membrane was incubated with Clarity™ ECL Western Blotting Substrate (Bio-Rad Laboratories) and chemiluminescence detected with a ChemiDoc™ MP Imaging System (Bio-Rad Laboratories). […]

IRF5 nuclear translocation in B cells (IRF5 [3])	levels of IRF5 in the nucleus (cell fractionation, Western blot) (IRF5 [4])	Compound	associated toxicity (propidium iodide) (Ramos B cells [1])	viability by tryphan blue staining (Ramos B cells [2])	IRF5 nuclear translocation in monocytes (IRF5 [3])
–	–	CC[C@H](C)[C@H](NC(=O)[C@H](CCCCN)NC(=O)[C@@H](NC(=O)[C@H](CCC(N)=O)NC(=O)[C@H](CCCNC(=N)N)NC(=O)[C@@H](N)CC(=O)O)[C@@H](C)CC)C(=O)N[C@@H](Cc1c[nH]c2ccccc12)C(=O)N[C@@H](Cc1ccccc1)C(=O)N[C@@H](CCC(N)=O)C(=O)N[C@@H](CC(N)=O)C(=O)N[C@@H](CCCNC(=N)N)C(=O)N[C@@H](CCCNC(=N)N)C(=O)N[C@@H](CCSC)C(=O)N[C@@H](CCCCN)C(=O)N[C@@H](Cc1c[nH]c2ccccc12)C(=O)N[C@@H](CCCCN)C(=O)N[C@@H](CCCCN)C(=O)N1CCC[C@H]1C(=O)N[C@@H](CCCNC(=N)N)C(=O)N[C@@H](CCCNC(=N)N)C(=O)N[C@H](C(=O)N[C@@H](CCCNC(=N)N)C(=O)N[C@@H](CC(C)C)C(=O)N[C@@H](CCCCN)C(=O)O)C(C)C [IRF5 5′NLS] (H-DRQIKIWFQNRRMKWKKPRRVRLK-OH)	minimal associated toxicity	–	–
–	–	CC[C@H](C)[C@H](NC(=O)[C@H](CCCCN)NC(=O)[C@@H](NC(=O)[C@H](CCC(N)=O)NC(=O)[C@H](CCCNC(=N)N)NC(=O)[C@@H](N)CC(=O)O)[C@@H](C)CC)C(=O)N[C@@H](Cc1c[nH]c2ccccc12)C(=O)N[C@@H](Cc1ccccc1)C(=O)N[C@@H](CCC(N)=O)C(=O)N[C@@H](CC(N)=O)C(=O)N[C@@H](CCCNC(=N)N)C(=O)N[C@@H](CCCNC(=N)N)C(=O)N[C@@H](CCSC)C(=O)N[C@@H](CCCCN)C(=O)N[C@@H](Cc1c[nH]c2ccccc12)C(=O)N[C@@H](CCCCN)C(=O)N[C@@H](CCCCN)C(=O)N1CCC[C@H]1C(=O)N[C@@H](CCCCN)C(=O)N[C@@H](CCCNC(=N)N)C(=O)N[C@@H](CCCNC(=N)N)C(=O)N[C@@H](CCCNC(=N)N)C(=O)N[C@@H](CC(C)C)C(=O)N[C@H](C(=O)O)C(C)C [Scrambled 5′NLS] (H-DRQIKIWFQNRRMKWKKPKRRRLV-OH; N-terminus and C-terminus assumed)	minimal associated toxicity	decrease in viability	–
no inhibition	Reduced levels of IRF5	DRQIKIWFQNRRMKWKKPREKKLI [IRF5 3′NLS]	–	–	only slightly reduced nuclear translocation
